Laboratory results: patent publication US20240067693A1, “POLYPEPTIDES AND USES THEREOF” (MEDIMMUNE LIMITED, priority 2020, published 2024)
Numbered stars: 1 amine (or outer) side, 2 acyl side, 3 side chain; on linkers, the order of the positions; unused ones are H or OH. Bridge positions count the residues as written; N and C are the ends. Square brackets hold non-standard residues; d marks the D form. Side chains are listed from the residue outwards. Peptide text beside a SMILES is read from it. * marks the point of attachment. C18 diacid = O=C(O)CCCCCCCCCCCCCCCCC(=O)*; γGlu = O=C(O)[C@H](CCC(=O)[*:2])N[*:1]; αMeF = C[C@](N)(Cc1ccccc1)C(=O)O; Dab = NCC[C@H](N)C(=O)O; Aib = CC(C)(N)C(=O)O

How the values were obtained:
[1] = molecular target: T1, human amylin receptor (calcitonin receptor co-expressed with receptor activity modifying protein, RAMP3) (hAMYR3) (Homo sapiens, UniProt O60896+P30988); assay: cAMP production in 1321N1 cells with stable recombinant expression of human amylin receptor (hAMYR3); assay type: cell-based; conditions: for Ratio (selectivity hAMYR vs hCTR, ratio of EC50 values at the two receptors): EC50 hCTR / EC50 hAMYR3; for EC50: cAMP, 1321N1 cells, assay buffer with 0.1% BSA, read-out: EC50 (pM) hAMYR3
T1 construct: expressed in transfected cells
T1 sequence (P30988 25-474): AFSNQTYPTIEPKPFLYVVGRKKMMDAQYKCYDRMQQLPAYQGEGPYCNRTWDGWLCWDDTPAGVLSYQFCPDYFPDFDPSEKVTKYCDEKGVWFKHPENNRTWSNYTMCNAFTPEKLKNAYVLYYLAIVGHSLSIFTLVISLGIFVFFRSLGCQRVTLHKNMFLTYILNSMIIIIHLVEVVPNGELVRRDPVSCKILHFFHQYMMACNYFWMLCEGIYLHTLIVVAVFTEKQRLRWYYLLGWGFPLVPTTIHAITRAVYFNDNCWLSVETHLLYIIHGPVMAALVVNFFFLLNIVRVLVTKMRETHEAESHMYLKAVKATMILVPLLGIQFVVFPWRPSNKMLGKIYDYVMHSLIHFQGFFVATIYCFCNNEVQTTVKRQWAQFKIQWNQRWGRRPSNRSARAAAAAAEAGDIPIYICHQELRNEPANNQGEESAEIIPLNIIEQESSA
T1 sequence (O60896 24-148 partner): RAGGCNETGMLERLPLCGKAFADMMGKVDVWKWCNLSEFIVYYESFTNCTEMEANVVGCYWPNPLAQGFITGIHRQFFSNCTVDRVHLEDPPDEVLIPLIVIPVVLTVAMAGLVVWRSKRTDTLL
Protocol: (§1) The functional activities of lipidated pramlintide analogue peptides, such as cAMP production, were tested in 1321N1 cell line with stable recombinant expression of human calcitonin receptor (hCTR) or human amylin receptor (calcitonin receptor co-expressed with receptor activity modifying protein, RAMP3) (hAMYR3) or HEK cells with stable recombinant expression of rat calcitonin receptor (rat CTR) or rat amylin receptor (calcitonin receptor co-expressed with receptor activity modifying protein, RAMP3) (Rat AMYR3).
(§2) Cryopreserved cell stock was thawed rapidly in a water-bath, suspended in assay buffer (0.1% BSA (Sigma # A3059) in HBSS (Sigma # H8264) with 25 mM HEPES, pH 7.4 and containing 0.5 mM IB MX (Sigma# 17018)) and spun at 240×g for 5 minutes. Cells were re-suspended in assay buffer at a batch-dependent optimized concentration (e.g. hCTR cells at 0.125×10^5 cells/mL, hAMYR3 cells at 0.125×10^5 cells/mL, rat CTR cells at 1x10^5 cells/mL, rat AMYR3 at 2×10^5 cells/mL).
(§3) The test peptide stock was prepared in DMSO and diluted in assay buffer to reach stated concentrations and transferred in duplicates into a 384-black shallow well microtitre assay plate (Corning # 3676). Cells were added to the assay plate, incubated at room temperature for 30 minutes and the cAMP level measured using cAMP dynamic 2 HTRF kit (Cisbio, Cat # 62AM4PEJ), following the two step protocol as per manufacturer's recommendations. The plates were read on an Envision (Perkin Elmer) using excitation wavelength of 320 nm and emission wavelengths of 620nm & 665 nm.
(§4) Data was transformed to % Delta F as described in the manufacturer's guidelines and analyzed as percent activation of maximal amylin or calcitonin effect by 4-parameter logistic fit to determine EC50 values. The selectivity of a peptide to hAMYR vs hCTR is defined as a ratio of EC50 values at the two receptors.

[2] = molecular target: T2, human calcitonin receptor (hCTR) (Homo sapiens, UniProt P30988); assay: cAMP production in 1321N1 cells with stable recombinant expression of human calcitonin receptor (hCTR); assay type: cell-based; conditions: cAMP, 1321N1 cells, assay buffer with 0.1% BSA; read-out: EC50 (pM) hCTR
T2 construct: expressed in transfected cells
T2 sequence (P30988 25-474): T1 sequence (P30988 25-474)
Protocol: as §1, §2, §3, §4

SMILES | Ratio (selectivity hAMYR vs hCTR, ratio of EC50 values at the two receptors) [1] | EC50 [1] [pM] | EC50 [2] [pM]
CC[C@H](C)[C@H](NC(=O)[C@@H]1CCCN1C(=O)CNC(=O)[C@H](Cc1ccccc1)NC(=O)[C@H](CC(N)=O)NC(=O)[C@H](CCN)NC(=O)[C@H](CO)NC(=O)[C@H](CO)NC(=O)[C@H](Cc1c[nH]cn1)NC(=O)C(C)(C)NC(=O)[C@H](CC(C)C)NC(=O)[C@H](Cc1ccccc1)NC(=O)[C@H](CC(N)=O)NC(=O)[C@H](C)NC(=O)[C@H](CC(C)C)NC(=O)[C@H](CCCNC(=N)N)NC(=O)[C@H](CCC(N)=O)NC(=O)[C@@H](NC(=O)[C@H](C)NC(=O)[C@@H]1CSSC[C@H](NC(=O)[C@H](CCCCN)NC(=O)[C@@H](N)CCCCNC(=O)CC[C@H](NC(=O)CCCCCCCCCCCCCCCCC(=O)O)C(=O)O)C(=O)N[C@@H](CC(N)=O)C(=O)N[C@@H]([C@@H](C)O)C(=O)N[C@@H](C)C(=O)N[C@@H]([C@@H](C)O)C(=O)N1)[C@@H](C)O)C(=O)N[C@@H](CC(C)C)C(=O)N1CCC[C@H]1C(=O)N1CCC[C@H]1C(=O)N[C@H](C(=O)N[C@@H](CCC(=O)O)C(=O)N[C@H](C(=O)NCC(=O)N[C@@H](CO)C(=O)N[C@@H](CC(N)=O)C(=O)N[C@H](C(=O)N[C@@H](Cc1ccc(O)cc1)C(N)=O)[C@@H](C)O)C(C)C)[C@@H](C)O [Peptide 30, K(γE-C18diacid)K[CNTATC]ATQRLANFL(Aib)HSS(Dab)NFGPILPPTEVGSNTY-amide] (H-K([γGlu-C18 diacid])KCNTATCATQRLANFL[Aib]HSS[Dab]NFGPILPPTEVGSNTY-NH2; disulfide 3-8; N-terminus assumed) | 12 | 873 | 10500
CC[C@H](C)[C@H](NC(=O)C(C)(C)NC(=O)CNC(=O)[C@H](Cc1ccccc1)NC(=O)[C@H](CC(N)=O)NC(=O)[C@H](CCN)NC(=O)[C@H](CO)NC(=O)[C@H](CO)NC(=O)[C@H](Cc1c[nH]cn1)NC(=O)[C@@H](NC(=O)[C@H](CC(C)C)NC(=O)[C@H](Cc1ccccc1)NC(=O)[C@H](CC(N)=O)NC(=O)[C@H](C)NC(=O)[C@H](CC(C)C)NC(=O)[C@H](CCCNC(=N)N)NC(=O)[C@H](CCC(N)=O)NC(=O)[C@@H](NC(=O)[C@H](C)NC(=O)[C@@H]1CSSC[C@H](NC(=O)[C@H](CCCCN)NC(=O)[C@@H](N)CCCCNC(=O)CC[C@H](NC(=O)CCCCCCCCCCCCCCCCC(=O)O)C(=O)O)C(=O)N[C@@H](CC(N)=O)C(=O)N[C@@H]([C@@H](C)O)C(=O)N[C@@H](C)C(=O)N[C@@H]([C@@H](C)O)C(=O)N1)[C@@H](C)O)C(C)C)C(=O)N[C@@H](CC(C)C)C(=O)N1CCC[C@H]1C(=O)N1CCC[C@H]1C(=O)N[C@H](C(=O)N[C@@H](CC(N)=O)C(=O)N[C@H](C(=O)NCC(=O)N[C@@H](CO)C(=O)N[C@@H](CC(N)=O)C(=O)N[C@H](C(=O)N[C@@H](Cc1ccc(O)cc1)C(N)=O)[C@@H](C)O)C(C)C)[C@@H](C)O [Peptide 31, K(γE-C18diacid)K[CNTATC]ATQRLANFLVHSS(Dab)NFG(Aib)ILPPTNVGSNTY-amide] (H-K([γGlu-C18 diacid])KCNTATCATQRLANFLVHSS[Dab]NFG[Aib]ILPPTNVGSNTY-NH2; disulfide 3-8; N-terminus assumed) | 4 | 349 | 1280
CC[C@H](C)[C@H](NC(=O)[C@@H]1CCCN1C(=O)CNC(=O)[C@](C)(Cc1ccccc1)NC(=O)[C@H](CC(N)=O)NC(=O)[C@H](CC(N)=O)NC(=O)[C@H](CO)NC(=O)[C@H](CO)NC(=O)[C@H](Cc1c[nH]cn1)NC(=O)[C@@H](NC(=O)[C@H](CC(C)C)NC(=O)[C@H](Cc1ccccc1)NC(=O)[C@H](CCN)NC(=O)[C@H](C)NC(=O)[C@H](CC(C)C)NC(=O)[C@H](CCCNC(=N)N)NC(=O)[C@H](CCC(N)=O)NC(=O)[C@@H](NC(=O)[C@H](C)NC(=O)[C@@H]1CSSC[C@H](NC(=O)[C@H](CCCCN)NC(=O)[C@@H](N)CCCCNC(=O)CC[C@H](NC(=O)CCCCCCCCCCCCCCCCC(=O)O)C(=O)O)C(=O)N[C@@H](CC(N)=O)C(=O)N[C@@H]([C@@H](C)O)C(=O)N[C@@H](C)C(=O)N[C@@H]([C@@H](C)O)C(=O)N1)[C@@H](C)O)C(C)C)C(=O)N[C@@H](CC(C)C)C(=O)N1CCC[C@H]1C(=O)N1CCC[C@H]1C(=O)N[C@H](C(=O)N[C@@H](CCC(=O)O)C(=O)N[C@H](C(=O)NCC(=O)N[C@@H](CO)C(=O)N[C@@H](CC(N)=O)C(=O)N[C@H](C(=O)N[C@@H](Cc1ccc(O)cc1)C(N)=O)[C@@H](C)O)C(C)C)[C@@H](C)O [Peptide 32, K(γE-C18diacid)K[CNTATC]ATQRLA(Dab)FLVHSSNN(αMePhe)GPILPPTEVGSNTY-amide] (H-K([γGlu-C18 diacid])KCNTATCATQRLA[Dab]FLVHSSNN[αMeF]GPILPPTEVGSNTY-NH2; disulfide 3-8; N-terminus assumed) | 15 | 742 | 11100
CC[C@H](C)[C@H](NC(=O)[C@@H]1CCCN1C(=O)CNC(=O)[C@H](Cc1ccccc1)NC(=O)[C@H](CC(N)=O)NC(=O)[C@H](CC(N)=O)NC(=O)[C@H](CO)NC(=O)[C@H](CO)NC(=O)[C@H](Cc1c[nH]cn1)NC(=O)[C@@H](NC(=O)[C@H](CC(C)C)NC(=O)[C@H](Cc1ccccc1)NC(=O)[C@H](CCN)NC(=O)[C@H](C)NC(=O)[C@H](CC(C)C)NC(=O)[C@H](CCCNC(=N)N)NC(=O)[C@H](CCC(N)=O)NC(=O)[C@@H](NC(=O)[C@H](C)NC(=O)[C@@H]1CSSC[C@H](NC(=O)[C@H](CCCCN)NC(=O)[C@@H](N)CCCCNC(=O)CC[C@H](NC(=O)CCCCCCCCCCCCCCCCC(=O)O)C(=O)O)C(=O)N[C@@H](CC(N)=O)C(=O)N[C@@H]([C@@H](C)O)C(=O)N[C@@H](C)C(=O)N[C@@H]([C@@H](C)O)C(=O)N1)[C@@H](C)O)C(C)C)C(=O)N[C@@H](CC(C)C)C(=O)N1CCC[C@H]1C(=O)N1CCC[C@H]1C(=O)N[C@H](C(=O)N[C@@H](CCC(=O)O)C(=O)N[C@H](C(=O)NCC(=O)N[C@@H](CO)C(=O)N[C@@H](CC(N)=O)C(=O)N[C@H](C(=O)N[C@@H](Cc1ccc(O)cc1)C(N)=O)[C@@H](C)O)C(C)C)[C@@H](C)O [Peptide 34] (H-K([γGlu-C18 diacid])KCNTATCATQRLA[Dab]FLVHSSNNFGPILPPTEVGSNTY-NH2; disulfide 3-8; N-terminus assumed) | 20 | 877 | 17700
CC[C@H](C)[C@H](NC(=O)[C@@H]1CCCN1C(=O)CNC(=O)[C@H](Cc1ccccc1)NC(=O)[C@H](CC(N)=O)NC(=O)C(C)(C)NC(=O)[C@H](CO)NC(=O)[C@H](CO)NC(=O)[C@H](Cc1c[nH]cn1)NC(=O)[C@H](CO)NC(=O)[C@H](CC(C)C)NC(=O)[C@H](Cc1ccccc1)NC(=O)[C@H](CC(N)=O)NC(=O)[C@H](C)NC(=O)[C@H](CC(C)C)NC(=O)[C@H](CCCNC(=N)N)NC(=O)[C@H](CCC(N)=O)NC(=O)[C@@H](NC(=O)[C@H](C)NC(=O)[C@@H]1CSSC[C@H](NC(=O)[C@H](CCCCN)NC(=O)[C@@H](N)CCCCNC(=O)CC[C@H](NC(=O)CCCCCCCCCCCCCCCCC(=O)O)C(=O)O)C(=O)N[C@@H](CC(N)=O)C(=O)N[C@@H]([C@@H](C)O)C(=O)N[C@@H](C)C(=O)N[C@@H]([C@@H](C)O)C(=O)N1)[C@@H](C)O)C(=O)N[C@@H](CC(C)C)C(=O)N1CCC[C@H]1C(=O)N1CCC[C@H]1C(=O)N[C@H](C(=O)N[C@@H](CC(N)=O)C(=O)N[C@H](C(=O)NCC(=O)N[C@@H](CO)C(=O)N[C@@H](CC(N)=O)C(=O)N[C@H](C(=O)N[C@@H](Cc1ccc(O)cc1)C(N)=O)[C@@H](C)O)C(C)C)[C@@H](C)O [Peptide 37, K(γE-C18diacid)K[CNTATC]ATQRLANFLSHSS(Aib)NFGPILPPTNVGSNTY-amide] (H-K([γGlu-C18 diacid])KCNTATCATQRLANFLSHSS[Aib]NFGPILPPTNVGSNTY-NH2; disulfide 3-8) | 8 | 249 | 1960
